Entries after “also recorded” stand apart in the source; their conditions may differ.
Columns and labels:
[1] = tested on: untreated iOPCs; test: Baseline Ki67 expression in untreated iOPCs (normal UBE3A levels); format: cell-based, human; details: 10 μM, 24 hours
Text: FIG. 19A: Schematic illustrating the process of generating iPSC-derived oligodendrocyte lineage cells using a refined protocol from Vulakh and Yang, […] (Vulakh, G., and Yang, X. (2023). Characterizing the Neuron-Glial Interactions by the Co-cultures of Human iPSC-Derived Oligodendroglia and Neurons. Methods Mol. Biol. 2683. 10.1007/978-1-0716-3287-1_9). The human iPSCs employed in this study were the extensively characterized KOLF2.J1 control reference line, sourced from the INDI (Ramos, D. M., Skarnes, W. C., Singleton, A. B., Cookson, M. R., and Ward, M. E. (2021). Tackling neurodegenerative diseases with genomic engineering: A new stem cell initiative from the NIH. Neuron 109, 1080-1083. 10.1016/j.neuron.2021.03.022). Initially, iPSCs are converted into neural precursor cells (iNPCs, marked by Nestin) through SMAD inhibition in the first week. These iNPCs are then induced into oligodendrocyte precursor cells (iOPCs, marked by PDGFRa and A2B5) by the second week. […] FIG. 19H: Baseline effects of AC-186 on OPC proliferation analyzed by Ki67 expression in untreated iOPCs exposed to vehicle or drugs (AC-186 or DPN; 10 μM, 24 hours), with densitometric signals of immunoblotting normalized to GAPDH. […]

[2] = tested on: AS iOPCs differentiated into iOLs; test: Differentiation of AS patient-derived iOPCs into iOLs (MAG, CNPase, MBP); format: cell-based, human; details: AC-186 10 μM or clemastine 2.5 μM, 72 hours
[3] = tested on: Angelman syndrome (AS) mice; test: Hindlimb Clasping test in AS mice; format: in vivo, mouse
Protocol: Animal handling and experimental use strictly followed NIH guidelines and protocols approved by the local Institutional Animal Care and Use Committee (IACUC) of Brown University. In all experiments, Mice were age and gender-matched. Multiple liters were used for all experiments. Weaned mice, housed in groups of two to four per cage, were maintained on a 12-h light/dark cycle with food and water ad libitum.
ESRβ agonist AC-186 treatment in vivo. 10 mg/kg AC-186 was daily IP delivered after dissolved at high concentration (30 mg/ml) in DMSO and further diluted in 20% PEG300. Vehicle groups received the same volume and concentration of diluted DMSO in 20% PEG300. Treatment started at P13 and continued until mice were sacrificed at P42.
The Hindlimb Clasping test, which was administered as delineated in a prior study, Guyenet et al., 2010 (A simple composite phenotype scoring system for evaluating 10 mouse models of cerebellar ataxia. J Vis Exp.), is a neurological evaluation that involves the temporary suspension of mice to observe their hindlimb reflexes, a reliable indicator of central nervous system pathology. This method involves a 10-second observation period during which the mice's hindlimb positions are closely monitored and scored. […]

Compound | Ki67 expression, baseline [1] | oligodendrocyte differentiation (MAG, CNPase, MBP) [2] | Hindlimb clasping score ([3]; AS mice, 10 mg/kg daily IP from P13-14, vs AS vehicle, 10 mg/kg) | Hindlimb clasping score ([3]; wildtype mice, 10 mg/kg daily IP)
N#CC(Cc1ccc(O)cc1)c1ccc(O)cc1 (centres unmarked) [DPN, diarylpropionitrile, reference compound] | neither AC-186 nor DPN affected; also recorded: No significant changes | – | – | –
Oc1ccc(C2(c3ccccc3F)CCC(F)(F)CC2)cc1 [AC-186] | neither AC-186 nor DPN affected; also recorded: No significant changes | no impact on oligodendrocyte differentiation | significantly alleviated neurological symptoms; also recorded: decreased | without affecting wildtype mice

— patent US20250032425A1, “FIRST IN CLASS USE OF ESTROGEN RECEPTOR BETA AGONISTS IN TREATING ANGELMAN SYNDROME AND RELEVANT AUTISM SPECTRUM DISORDERS” (BROWN UNIVERSITY, priority 2023, published 2025)
